From patent publication US10308644B2, “Heterocyclic compounds as immunomodulators” (Incyte Corporation, priority 2016, dated 2019)

Molecular target: PD-1/PD-L1 (Homo sapiens (Human), UniProt Q9NZQ7)
Experiment: PD-1/PD-L1 Homogeneous Time-Resolved Fluorescence (HTRF) Binding Assay
Conditions: recombinant human PD-1 (3 nM) and PD-L1 (10 nM), 25° C., PBS pH 7.4
Protocol: Example A. PD-1/PD-L1 Homogeneous Time-Resolved Fluorescence (HTRF) Binding Assay
The assays were conducted in a standard black 384-well polystyrene plate with a final volume of 20 μL. Inhibitors were first serially diluted in DMSO and then added to the plate wells before the addition of other reaction components. The final concentration of DMSO in the assay was 1%. The assays were carried out at 25° C. in the PBS buffer (pH 7.4) with 0.05% Tween-20 and 0.1% BSA. Recombinant human PD-L1 protein (19-238) with a His-tag at the C-terminus was purchased from AcroBiosystems (PD1-H5229). Recombinant human PD-1 protein (25-167) with Fc tag at the C-terminus was also purchased from AcroBiosystems (PD1-H5257). PD-L1 and PD-1 proteins were diluted in the assay buffer and 10 μL was added to the plate well. Plates were centrifuged and proteins were preincubated with inhibitors for 40 minutes. The incubation was followed by the addition of 10 μL of HTRF detection buffer supplemented with Europium cryptate-labeled anti-human IgG (PerkinElmer-AD0212) specific for Fc and anti-His antibody conjugated to SureLight®-Allophycocyanin (APC, PerkinElmer-AD0059H). After centrifugation, the plate was incubated at 25° C. for 60 min. before reading on a PHERAstar FS plate reader (665 nm/620 nm ratio). Final concentrations in the assay were—3 nM PD1, 10 nM PD-L1, 1 nM europium anti-human IgG and 20 nM anti-His-Allophycocyanin. IC50 determination was performed by fitting the curve of percent control activity versus the log of the inhibitor concentration using the GraphPad Prism 5.0 software.

Chain of PD-1/PD-L1 (Q9NZQ7 19-238): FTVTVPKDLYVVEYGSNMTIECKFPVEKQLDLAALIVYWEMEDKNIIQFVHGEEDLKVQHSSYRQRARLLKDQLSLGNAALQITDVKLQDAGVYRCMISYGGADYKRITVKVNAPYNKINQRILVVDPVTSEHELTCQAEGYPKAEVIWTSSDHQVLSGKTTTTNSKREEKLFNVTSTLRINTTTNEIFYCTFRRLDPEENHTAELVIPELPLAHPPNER

Row | Structure (SMILES) | IC50 [nM]
1 | Cc1c(Nc2nccc3cc(CN4CC[C@H](O)C4)cnc23)cccc1-c1cccc(-c2nc3cc(CN4CC[C@H](C(=O)O)C4)cc(C#N)c3o2)c1C [Example 25, (S)-1-((7-cyano-2-(3′-(3-(((S)-3-hydroxypyrrolidin-1-yl)methyl)-1,7-naphthyridin-8-ylamino)-2,2′-dimethylbiphenyl-3-yl)benzo[d]oxazol-5-yl)methyl)pyrrolidine-3-carboxylic acid] | ≤ 10
2 | Cc1c(Nc2ncnc3cc(CN4CCCC4)cnc23)cccc1-c1cccc(-c2nc3cc(CN4CC[C@@H](C(=O)O)C4)cc(C#N)c3o2)c1C [Example 209, (R)-1-((7-cyano-2-(2,2′-dimethyl-3′-(7-(pyrrolidin-1-ylmethyl)pyrido[3,2-d]pyrimidin-4-ylamino)biphenyl-3-yl)benzo[d]oxazol-5-yl)methyl)pyrrolidine-3-carboxylic acid] | ≤ 10
3 | Cc1c(Nc2nccc3cc(CN4CC[C@@H](O)C4)cnc23)cccc1-c1cccc(-c2nc3cc(CN[C@@H]4CC[C@H](C(=O)O)C4)cc(C#N)c3o2)c1C [Example 170, (1S,3R)-3-((7-cyano-2-(3′-(3-(((R)-3-hydroxypyrrolidin-1-yl)methyl)-1,7-naphthyridin-8-ylamino)-2,2′-dimethylbiphenyl-3-yl)benzo[d]oxazol-5-yl)methylamino)cyclopentanecarboxylic acid] | ≤ 10
4 | Cc1c(Nc2nccc3cc(CN4CC[C@@H](O)C4)cnc23)cccc1-c1cccc(-c2nc3cc(CN[C@H]4CCC[C@H]4C(=O)O)cc(C#N)c3o2)c1C [Example 175, (1R,2S)-2-((7-cyano-2-(3′-(3-(((R)-3-hydroxypyrrolidin-1-yl)methyl)-1,7-naphthyridin-8-ylamino)-2,2′-dimethylbiphenyl-3-yl)benzo[d]oxazol-5-yl)methylamino) cyclopentanecarboxylic acid] | ≤ 10
5 | Cc1c(-c2nc3c(o2)CN(C(=O)CN(C)C)C3)cccc1-c1cccc(-c2nc3cc(CN4CC[C@@](C)(C(=O)O)C4)cc(C#N)c3o2)c1C [Example 245, (R)-1-((7-cyano-2-(3′-(5-(dimethylglycyl)-5,6-dihydro-4H-pyrrolo[3,4-d]oxazol-2-yl)-2,2′-dimethyl[1,1′-biphenyl]-3-yl)benzo[d]oxazol-5-yl)methyl)-3-methylpyrrolidine-3-carboxylic acid] | ≤ 10
6 | Cc1c(NC(=O)c2nc3c(n2C)CCN(C[C@H](C)O)C3)cccc1-c1cccc(-c2nc3cc(CN4CC[C@H](C(=O)O)C4)cc(C#N)c3o2)c1C [Example 41, (S)-1-((7-cyano-2-(3′-(5-((S)-2-hydroxypropyl)-1-methyl-4,5,6,7-tetrahydro-1H-imidazo[4,5-c]pyridine-2-carboxamido)-2,2′-dimethylbiphenyl-3-yl)benzo[d]oxazol-5-yl)methyl)pyrrolidine-3-carboxylic acid] | ≤ 10
7 | Cc1c(-c2nc3cc(CN4CC[C@@H](C(=O)O)C4)cc(Cl)c3o2)cccc1-c1cccc(N2CCC(NC3CC3)CC2)c1Cl [Example 44, (R)-1-((7-chloro-2-(2′-chloro-3′-(4-(cyclopropylamino)piperidin-1-yl)-2-methylbiphenyl-3-yl)benzo[d]oxazol-5-yl)methyl)pyrrolidine-3-carboxylic acid] | ≤ 10

The remaining lines, values ahead:

Row | IC50 [nM] | Structure (SMILES)
8 | ≤ 10 | Cc1c(Nc2nccc3cc(CN[C@@H](C)CO)cnc23)cccc1-c1cccc(-c2nc3cc(CN4CC[C@@H](C(=O)O)C4)cc(C#N)c3o2)c1C [Example 257, (R)-1-((7-cyano-2-(3′-(3-(((S)-1-hydroxypropan-2-ylamino)methyl)-1,7-naphthyridin-8-ylamino)-2,2′-dimethylbiphenyl-3-yl)benzo[d]oxazol-5-yl)methyl)pyrrolidine-3-carboxylic acid]
9 | ≤ 10 | Cc1c(Nc2nccc3cc(CN4CC[C@@H](O)C4)cnc23)cccc1-c1cccc(-c2nc3cc(CN4CCC(C(=O)O)CC4)cc(C#N)c3o2)c1C [Example 186, (R)-1-((7-cyano-2-(3′-(3-((3-hydroxypyrrolidin-1-yl)methyl)-1,7-naphthyridin-8-ylamino)-2.2′-dimethylbiphenyl-3-yl)benzo [d]oxazol-5-yl)methyl)piperidine-4-carboxylic acid]
10 | ≤ 10 | Cc1c(-c2nc3c(o2)CCNC3)cccc1-c1cccc(-c2nc3cc(CN4CC(C(=O)O)C4)cc(Cl)c3o2)c1C [Example 77, 1-((7-chloro-2-(2,2′-dimethyl-3′-(4,5,6,7-tetrahydrooxazolo[4,5-c]pyridin-2-yl)-[1,1′-biphenyl]-3-yl)benzo[d]oxazol-5-yl)methyl)azetidine-3-carboxylic acid]
11 | ≤ 10 | Cc1c(Nc2nccc3cc(CNC[C@H](C)O)cnc23)cccc1-c1cccc(-c2nc3cc(CN4CC[C@@H](C(=O)O)C4)cc(C#N)c3o2)c1C [Example 146, (R)-1-((7-cyano-2-(3′-((3-((((S)-2-hydroxypropyl)amino)methyl)-1,7-naphthyridin-8-yl)amino)-2,2′-dimethyl-[1,1′-biphenyl]-3-yl)benzo[d]oxazol-5-yl)methyl)pyrrolidine-3-carboxylic acid]
12 | ≤ 10 | Cc1c(-c2nc3c(o2)CN(C(=O)CN2CCC(O)CC2)C3)cccc1-c1cccc(-c2nc3cc(CN4CC[C@@](C)(C(=O)O)C4)cc(C#N)c3o2)c1C [Example 249, (R)-1-((7-cyano-2-(3′-(5-(2-(4-hydroxypiperidin-1-yl)acetyl)-5,6-dihydro-4H-pyrrolo[3,4-d]oxazol-2-yl)-2,2′-dimethyl-[1,1′-biphenyl]-3-yl)benzo[d]oxazol-5-yl)methyl)-3-methylpyrrolidine-3-carboxylic acid]
13 | ≤ 10 | Cc1c(-c2nc3cc(CN4CCCC[C@H]4C(=O)O)c(OCC#N)cc3o2)cccc1-c1cccc(-c2nc3cc(CN4CCCC[C@H]4C(=O)O)c(OCC#N)cc3o2)c1C [Example 7, (2S,2′S)-1,1′-(((2,2′-dimethyl-[1,1′-biphenyl]-3,3′-diyl)bis(6-(cyanomethoxy)benzo[d]oxazole-2,5-diyl))bis(methylene))bis(piperidine-2-carboxylic acid)]
14 | ≤ 10 | Cc1c(Nc2nccc3cc(CN4CC[C@H](O)C4)cnc23)cccc1-c1cccc(-c2nc3cc(CN4CC(C(=O)O)C4)cc(Cl)c3o2)c1C [Example 23, (S)-1-((7-chloro-2-(3′-(3-((3-hydroxypyrrolidin-1-yl)methyl)-1,7-naphthyridin-8-ylamino)-2,2′-dimethylbiphenyl-3-yl)benzo[d]oxazol-5-yl)methyl)azetidine-3-carboxylic acid]
15 | ≤ 10 | Cc1c(-c2nc3cc(CN4CC[C@@H](O)C4)cc(C#N)c3o2)cccc1-c1cccc(NC(=O)c2nc3c(n2C)CC(C)(C(=O)O)N(C)C3)c1Cl (stereo partly drawn) [Example 165, 2-(2-chloro-3′-(7-cyano-5-(((R)-3-hydroxypyrrolidin-1-yl)methyl)benzo[d]oxazol-2-yl)-2′-methylbiphenyl-3-ylcarbamoyl)-1,5,6-trimethyl-4,5,6,7-tetrahydro-1H-imidazo[4,5-c]pyridine-6-carboxylic acid]
16 | ≤ 10 | Cc1c(-c2nc3cc(CN4CC[C@@H](O)C4)cc(C#N)c3o2)cccc1-c1cccc(NC(=O)c2nc3c(n2C)CCN(C[C@H]2CC[C@H](C(=O)O)CC2)C3)c1Cl [Example 261, trans-4-((2-(2-chloro-3′-(7-cyano-5-(((R)-3-hydroxypyrrolidin-1-yl)methyl)benzo[d]oxazol-2-yl)-2′-methylbiphenyl-3-ylcarbamoyl)-1-methyl-6,7-dihydro-1H-imidazo[4,5-c]pyridin-5 (4H)-yl)methyl)cyclohexanecarboxylic acid]
